What was measured:
[1] = test system: V79-4 (Chinese Hamster Lung fibroblast) cells; experiment: Flow cytometry measurement of delivery of IdU labeled ACes with transfection agents; format: cell-based; details: percentage of transfected cells containing IdU labeled ACes, 1×10^6 ACes complexed with agent, agent dose in microliters per Table 2
Protocol: All compounds were tested in a Chinese Hamster lung fibroblast line (V79-4, ATCC number CCL-39). Approximately 17 hours (2 cell doublings) prior to transfection, exponentially growing cells were trypsinized and plated at 250,000 cells per well into a 6 well petri dish with Dulbecco's Modified Eagle Medium (Life Technologies, Burlington, ON) and supplemented with 10% FBS (Can Sera, Rexdale ON)). At the time of transfection, the number of cells per well was estimated to be approximately 1 million. For transfection, each individual manufacturer's protocol for complexing to naked DNA was followed, with the exception that the amount of transfection agent used was varied, to reflect the different amount and type of DNA present, as well as the different ionic strength of the complexing. […]
The percentage of transfected cells containing IdUrd-labeled ACes was determined using flow cytometry and collecting FITC fluorescence. Data were accumulated to form bivariate channel distribution showing forward scatter versus green fluorescence (IdUrd-FITC). The fluorescence level at which cells were determined to be positive was established by visual inspection of the histogram of negative control cells such that the gate for the negative cells was set such that 1% appeared in the positive region. […]

[2] = test system: Hep-G2 cells; experiment: Ultrasound mediated transfection of Hep-G2 cells with GFP chromosomes; format: cell-based
Protocol: (§1) Transfection of the cells was performed as follows. The medium was removed from the cells, and the cells were washed twice with HBSS (Hanks balanced salt solution without Phenol Red (Gibco BRL, UK)) at 37° C. Then 500 μl HBSS at 37° C. was added per well, followed by 10 μl of the freshly prepared vesicle solution (prepared in Example 2) to yield a final concentration of 23.3 nmol/ml.
(§2) Alternatively, the medium was removed from the cells, and the cells were washed twice with HBSS. 500 μl HBSS/lipid solution at 37° C. was added to each well. The HBSS/lipid solution was prepared by adding 1 μl ethanolic lipid solution (prepared as described above) to 500 μl HBSS under vigorous vortexing. The plates were then sealed with parafilm tape and shaken gently at room temperature for 30 min. After incubation, ultrasound was applied at an output energy of 0.5 Watt/cm^2 for 60 sec through the bottom of the plate to the cells. The ultrasound was mediated by an ultrasound gel (Aquasonic 100, Parker, N.J.) between transducer and plate. The ultrasound was applied with an ImaRx Sonoporator 100. Immediately after applying ultrasound one GFP chromosome per seeded cell (2×10^5-5×10^5) (prepared in Example 1) was added. The plate was then sealed again and shaken gently for 1 h at room temperature. […]

[3] = test system: CHO-KI cells; experiment: Ultrasound mediated transfection of CHO-KI cells with GFP chromosomes; format: cell-based
Protocol: Vesicles were prepared at a lipid concentration of 700 nmol/ml lipid (cationic lipid/DOPE 1:1) as follows. In a glass tube (10 ml) 350 nmol cationic lipid (SAINT-2) was mixed with 350 nmol dioleoylphosphatidylethanolamine (DOPE), both solubilized in an organic solvent (Chloroform, Methanol or Chloroform/Methanol 1:1, v/v). Dioleoylphosphatidylethanolamine (DOPE; Avanti Polar Lipids, Alabaster, Ala.) forms inverse hexagonal phases in a membrane and weakens the membrane. Other effectors that may be used are cis-unsaturated phosphatidylethanolamines, cis-unsaturated fatty acids, and cholesterol.
The solvent was evaporated under a stream of nitrogen (15 min/ 250 μl solvent at room temperature). The remaining solvent was removed totally by drying the lipid for 15 min in a desiccator under high vacuum from a vacuum pump. To the dried mixture was added 1 ml ultrapure water. This was vortexed vigorously for about […]. The resulting solution was sonicated in an ultrasonication bath (Laboratory Supplies Inc. NY) until a clear solution was obtained. The resulting suspension contained a population of unilamellar vesicles with a size distribution between 50 to 100 nm.
CHO-KI cells were grown at 37°, 5% CO2, in CHO-S-SFM 2 Medium, (Gibco BRL, Paisley, UK). Between 2×10^5 and 5×10^5 cells were plated onto sterile glass slides in a 12 well plate 24 h before usage.
as §1, §2

[4] = test system: A9 cells; experiment: Ultrasound mediated transfection of A9 cells with GFP chromosomes; format: cell-based, murine
Protocol: as §1, §2

[5] = Saint-2/DOPE 1:1, ultrasound 0.5 Watt/cm^2 for 60 sec

Compound | DELIVERY % IdU positive (24 hours) [1] | cells remained on the glass slide after transfection [2, 5] | remaining cells positive for green fluorescent protein expression ([2]; of the cells remaining on the slide) | cells remained on the glass slide after transfection ([3]; Saint-2/DOPE 1:1, ultrasound 0.5 Watt/cm^2 for 60 sec, visual inspection) | GFP positive cells, of original population ([3]; after 48 hours) | remaining cells positive for green fluorescent protein expression ([3]; after 48 hours, of the cells remaining on the slide) | cells containing an intact artificial chromosome (FISH) ([3]; after culturing for two weeks) | cells remained on the glass after transfection [4, 5] | remaining cells positive for green fluorescent protein expression ([4]; of the cells remaining on the glass)
CCCCCCCCCCCCCCN=C(CCNCCCCCCCCCCCCCC)NC(C)(C)C [CLONFECTIN, N-t-butyl-N′-tetradecyl-3-tetradecyl-aminopropionamidine] | 0.61% | – | – | – | – | – | – | – | –
CCCCCCCCC=CCCCCCCCCC(CCCCCCCCC=CCCCCCCCC)c1cc[n+](C)cc1.[Cl-] (stereo not drawn) [Saint-2, 1-methyl-4-(1-octadec-9-enyl-nonadec-10-enylenyl) pyridinium chloride] | – | 30% | 80% | 30% | 3% | 10% | 1.4% | 30% | 50%
